Test system: old Labrador Retriever dog that had difficulty in standing and walking
Test: Exercise ability (walking distance) of a dog under cofactor supplementation
Type: in vivo
Description: When L-carnitine, acetyl-L-carnitine, with added pantothenate at 0.4 mg/kg body weight were supplemented for one week, exercise ability increased to 2740 yards and, by three weeks, ability was 3807 yards. However, when pantothenate was eliminated for two weeks, exercise ability declined to 350 yards. Then when pantothenate was returned to the L-carnitine and acetyl-L-carnitine combination, his exercise capability returned to more than 3800 yards. This case illustrates the contribution of the various cofactors to physical activity.

| SMILES | distance it could walk (after one week of L-carnitine at 5 mg/kg body weight, 340 yards before) | exercise ability (distance walked) (after two weeks of acetyl-L-carnitine at 4 mg/kg body weight and no L-carnitine) |
| --- | --- | --- |
| C[N+](C)(C)C[C@H](O)CC(=O)[O-] [L-carnitine] | 1240 yards |  |
| CC(=O)O[C@H](CC(=O)[O-])C[N+](C)(C)C [acetyl-L-carnitine] |  | 648 yards |

Source: patent US20070042020A1, “Composition for the treatment of dysfunctional energy metabolism syndrome” (priority 2003, published 2007)
